Patent US11571411B2, “Use of a bisamide derivative of malonic acid for treating allergic and other diseases in humans and animals” (PHARMENTERPRISES ALLERGY LLC, priority 2018, dated 2023)

Tests used:
[1] = target: T1, human histamine receptor type 4 (Homo sapiens, UniProt Q9H3N8); test: Binding of radiolabeled ligand [3H] histamine to histamine receptor type 4; settings: HEK-293 cells, [3H] histamine (10 nM)
T1 construct: expressed in transfected cells; host or cells: HEK-293 cells

[2] = tested on: ovalbumin-induced allergic rhinitis model; test: Ovalbumin-induced allergic rhinitis model in guinea pigs, oral administration; assay type: in vivo, guinea pig; settings: intragastrically; for Number of nose scratchings / Number of sneezes: within 2 hours after ovalbumin
Procedure: Int Immunopharmacol. 2013. V.17(1). P.18-25]. Guinea pigs (250-300 g) were immunized with 4× (on days 0, 7, 14 and 21) intraperitoneal administration of a mixture of ovalbumin (100 μg/pig) and aluminum hydroxide (5 mg/pig), diluted and suspended in saline. On day 28 of the study, an ovalbumin solution (60 mg/ml) was injected intranasally to the animals, 20 μl into each nostril. On day 35, after shaving the skin on the back, the animals were intradermally injected with an ovalbumin solution (200 μg/ml, 25 μl). […] On day 42 of the study, an ovalbumin solution (60 mg/ml, 20 μl/nostril) was administered intranasally. A group of sham-immunized animals was formed in order to control the formation of allergic inflammation: the pigs received an aluminum hydroxide solution (5 mg/pig) on days 0, 7, 14 and 21, a saline solution on days 28 and 35, and an ovalbumin solution (60 mg/ml, 20 μl/nostril) on day 42. Table 1 presents data on clinical manifestations of pathology and the number of eosinophils in the lavage fluid in guinea pigs on the allergic rhinitis experimental model after oral administration (M±m, n=10)
Compound I was administered to animals intragastrically 48, and 1 hour before intranasal administration of ovalbumin. Clinical manifestations of rhinitis were assessed within 2 hours after the last administration of ovalbumin: the numbers of sneezes and nose scratchings were counted. In addition, eosinophils were counted in the nasal lavage fluid.

[3] = target: T2, human histamine receptor type 3 (Homo sapiens, UniProt Q9Y5N1); test: Effect on activity of histamine receptor type 3 (intracellular cAMP, CHO cells); assay type: cell-based; settings: preincubation with histamine, read-out: IC50, antagonist of histamine receptor type 3
T2 construct: expressed in transfected cells; host or cells: CHO cells
T2 sequence (Q9Y5N1 whole entry): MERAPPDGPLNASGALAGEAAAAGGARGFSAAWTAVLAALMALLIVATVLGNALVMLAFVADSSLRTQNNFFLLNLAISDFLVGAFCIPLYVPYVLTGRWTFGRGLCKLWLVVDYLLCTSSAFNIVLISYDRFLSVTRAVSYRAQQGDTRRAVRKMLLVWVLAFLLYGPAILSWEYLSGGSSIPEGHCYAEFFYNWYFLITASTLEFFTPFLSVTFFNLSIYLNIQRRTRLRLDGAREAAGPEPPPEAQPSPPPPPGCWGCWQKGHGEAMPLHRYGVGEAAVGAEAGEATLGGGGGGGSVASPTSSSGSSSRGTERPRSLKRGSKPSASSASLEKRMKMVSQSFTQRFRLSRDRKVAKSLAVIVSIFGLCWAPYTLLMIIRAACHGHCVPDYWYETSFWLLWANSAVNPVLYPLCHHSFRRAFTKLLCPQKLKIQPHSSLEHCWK

[4] = tested on: histamine-induced nasal congestion model; test: Histamine-induced nasal congestion model in guinea pigs, nasal administration of 1% solution; assay type: in vivo, guinea pig; settings: for Resistance in nasal passages, AUC: 1% solution once intranasally, AUC 0-15 minutes
Procedure: A histamine-induced nasal congestion model in guinea pigs was performed according to the standard procedure [Slack R J1, Russell L J, Hall D A, Luttmann M A, Ford A J, Saunders K A, Hodgson S T, Connor H E, Browning C, Clark K L. Pharmacological characterization of GSK1004723, a novel, long-acting antagonist at histamine H(1) and H(3) receptors//Br J Pharmacol. 2011. V.164(6). P.1627-1641]. Guinea pigs were anesthetized, the trachea was isolated, and a cannula was inserted through it into the nasopharynx. The cannula was connected to a blood pressure sensor and artificial respirator (Ugo Basile). A 0.2% solution of histamine was inhaled for 3 minutes. The resistance to air flow in the nasal passages was assessed within 15 minutes after the end of inhalation of the histamine solution. Compound I was administered to guinea pigs once intranasally in the form of a 1% solution (10 μl/nostril) 1 hour and 4 hours before the inhalation of histamine.

[5] = target: T2, human histamine receptor type 3; test: Binding of radiolabeled ligand [3H]Nα-methylhistamine to histamine receptor type 3; settings: CHO cells, [3H]Nα-methylhistamine (1 nM)
[6] = tested on: histamine-induced nasal congestion model; test: Histamine-induced nasal congestion model in dogs, nasal administration of 1% solution; assay type: in vivo, Beagle dogs; settings: 1% solution intranasally
Procedure: A histamine-induced nasal congestion model in dogs was performed according to the standard procedure [Tiniakov R. L., Tiniakova O. P., McLeod R. L., Hey J. A., Yeates D. B. Canine model of nasal congestion and allergic rhinitis//J Appl Physiol. 2003. V.94(5). P.1821-1828]. Beagle dogs were injected to the nasal cavity with a 5% histamine solution in a volume of 250 μl/nostril. The volume of the nasal cavity of the right and left nostrils was measured using a rhinometer before and 5, 10, 15, 20, 30, 40, 50 and 60 minutes after administration of histamine. Five experiments were carried out in which Compound I was administered intranasally once in the form of a 1% solution in a volume of 50 μl at different time periods: 1) 5 minutes after the administration of histamine; 2) right before administration of histamine; 3) 3 hours before administration of histamine; 4) […] administration of histamine; and 5) 8 hours before administration of histamine.

T1 sequence (Q9H3N8 whole entry): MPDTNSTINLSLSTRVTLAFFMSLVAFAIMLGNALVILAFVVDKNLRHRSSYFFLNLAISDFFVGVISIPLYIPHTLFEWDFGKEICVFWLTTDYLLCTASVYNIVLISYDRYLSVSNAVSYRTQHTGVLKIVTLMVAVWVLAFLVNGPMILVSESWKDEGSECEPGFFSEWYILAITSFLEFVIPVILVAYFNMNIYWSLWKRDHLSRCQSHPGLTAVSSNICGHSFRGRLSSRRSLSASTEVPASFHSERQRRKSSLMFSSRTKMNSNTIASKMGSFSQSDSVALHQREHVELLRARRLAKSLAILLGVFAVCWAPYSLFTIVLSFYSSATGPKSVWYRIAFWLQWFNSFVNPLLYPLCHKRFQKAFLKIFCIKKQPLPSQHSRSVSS

O=C(CC(=O)NCCc1cnc[nH]1)NCCc1cnc[nH]1 [Compound I, N,N′-bis(2-(1H-imidazol-5-yl)ethyl)malonamide]
Ki [1]: 16 µM
Number of eosinophils per 1 μL of lavage fluid ([2]; 0.014 mg/kg): 1300.5 ± 93.8*#& per 1 μL
Number of nose scratchings ([2]; 0.014 mg/kg): 16.1 ± 2*#&
Number of sneezes ([2]; 0.014 mg/kg): 11.6 ± 1.4*#&
Number of eosinophils per 1 μL of lavage fluid ([2]; 0.042 mg/kg): 1219.6 ± 159.4*#& per 1 μL
Number of nose scratchings ([2]; 0.042 mg/kg): 16.2 ± 2.7*&
Number of sneezes ([2]; 0.042 mg/kg): 10.5 ± 1.2*#&
Number of eosinophils per 1 μL of lavage fluid ([2]; 0.14 mg/kg): 1141.5 ± 128.5*#& per 1 μL
Number of nose scratchings ([2]; 0.14 mg/kg): 13.3 ± 1.3*&
Number of sneezes ([2]; 0.14 mg/kg): 8.3 ± 0.9*#&
Number of eosinophils per 1 μL of lavage fluid ([2]; 0.42 mg/kg): 1069.0 ± 139.4*#& per 1 μL
Number of nose scratchings ([2]; 0.42 mg/kg): 16.2 ± 2.0*#&
Number of sneezes ([2]; 0.42 mg/kg): 5.2 ± 0.6*&
Number of eosinophils per 1 μL of lavage fluid ([2]; 1.4 mg/kg): 984.1 ± 111.0*#& per 1 μL
Number of nose scratchings ([2]; 1.4 mg/kg): 14.4 ± 3.3*&
Number of sneezes ([2]; 1.4 mg/kg): 6.9 ± 0.8*#&
IC50 [3]: 20 µM
duration of the therapeutic effect ([4]; 1% solution intranasally, guinea pigs, histamine-induced nasal congestion): at least 4 hours
Resistance in nasal passages, AUC ([4]; 1 hour before histamine inhalation): 317.95 ± 24.49*& see H2O×c
Resistance in nasal passages, AUC ([4]; 3 hours before histamine inhalation): 281.75 ± 52.44*& see H2O×c
Ki [5]: 2.7 µM
duration of the therapeutic effect [6]: at least 8 hours
onset time of the therapeutic effect [6]: no more than 5 minutes
